Measurements published in patent US3996231A, “1-Quinolinyl-pyrazolidine derivatives” (Choay S.A., priority 1973, dated 1976).
Like-named read-outs stand apart in the source and are kept apart here.

How the values were obtained:
[1] = Solubility; format: physicochemical
[2] = test system: rat; test: in vivo
Experimental: (§1) LD50 were determined in the mouse and the rat. The substance was administered to the animals by the oral route in a single dose. The behaviour of the animals was observed during the six days which followed. The statistical calculations were done by the method of Miller L. C. Tainter M. L. (Proc. Soc. Exp. Biol. Med., 1944 57 261/264/264).

[3] = in vivo; conditions: rat, in vivo, po
Experimental: as §1

[4] = test system: mouse; test: Acute oral toxicity / LD50 in the mouse; conditions: for Mortality: in vivo, po
Experimental: as §1

[5] = Acute oral toxicity / LD50 in the mouse; conditions: in vivo, po
Experimental: as §1

[6] = test system: Arthritis by Freund adjuvant; test: Arthritis by Freund adjuvant; format: in vivo, rat; conditions: 50 mg/kg per day
Experimental: The injection of 0.5 ml of Freund adjuvant (product sold by the Difco Company) into the plantar pad of the rear foot of a rat of 90 days, causes a chronic polyarthritis.
This injection causes an inflammation first localised in the injected foot, then generalised. The blocking of the articulations appears between the 10th and the 20th days.
In a series of rats thus treated there are selected, 10 days after the injection of the Freund adjuvant, 50 rats having complete blockage of the articulations.

[7] = test system: all the animals; test: AD50 (active dose 50) and therapeutic index as shown by the above-mentioned tests; format: in vivo; conditions: for ED50: read-out: AD50 (active dose 50)
[8] = test system: Experimental pleurisy; test: Experimental pleurisy in the rat (terebenthine essence); format: in vivo, Wistar rats; conditions: 6 hours
Experimental: The injection of terebenthine essence (0.1 ml) into the bottom of the diaphragmatic sack of the rat causes in the hours which follow a vascular parietal reaction which leads to the formation of an inflammatory type pleurisy.
The average volume of the pleural exudate (taken up after opening the thoracic cage of the previously sacrificed animals) increases gradually in control animals to reach 6 to 7 ml towards the sixth hour, this volume remaining constant to the forty-eighth hour. The exudate is accompanied by the diapedesis of the formed elements of the blood and by the increase in the mobile cells of the conjunctive tissue. Five days after the injection of the irritant agent, the cellular phase gives place to a tissular reaction which leads to the building of dense granulation tissue and to the production of adhesions between the lungs and the thoracic wall.
The action of an anti-inflammatory substance is manifested by a reduction in the volume of the pleural exudate measured for example 6 hours after the injection of the irritant agent and by a reduction in the intensity of the later tissular reaction.
Experiments in Wistar rats of 200 g divided into batches in the following manner were carried out:
1 control batch of 15 animals
batch of 60 animals (batch 3) also divided into subgroups, each of them comprising 20 animals which have been treated with the doses indicated in Table V
6 batches of 15 animals, respectively treated with anti-inflammatory substances for comparison identified above.
The substances to be tested were administered by mouth 30 minutes before the injection of the irritant substance. The doses of these known anti-inflammatories correspond to their normal experimental doses. The results indicated in the Table V correspond to the reductions expressed as % of the average volumes of pleural exudate taken up 6 hours after the irritant injection and observed in the treated animals relative to the average volumes measured in the controls.

[9] = test system: transmission of painful stimuli; test: Caroll and Lim test; format: in vivo, rat; conditions: 50 mg/kg by mouth
Source text: This test (Arch. Int. Pharmacodyn., 1960, CXXV, 383-403) enables the study of the effect of analgesics on the transmission of painful stimuli, by means of electrodes placed on the tail of the rat and connected to a "stimulator" constituted by a source adapted to supply an alternating current of 60 Hz frequency at increasing voltages. The three voltages (thresholds S1, S2, S3) at which there are successively obtained:
Threshold S1 : characteristic retraction movement of the tail
Threshold S3 : a cry which continues after interrupting the stimulation.
The analgesic substances administered to a group of 15 rats have the effect of increasing the values of these thresholds. This is what have been observed with the substance according to the invention, administered by mouth at the dose of 50 mg/kg. The average increases, expressed as % with respect to the average corresponding thresholds observed in 15 animals of a control series, are indicated in Table VIII below.

[10] = comparison batch, 25 mg/kg by mouth
[11] = comparison batch, 50 mg/kg by mouth
[12] = relative to the values of the invention's substance

CCCCC1C(=O)NN(c2ccnc3cc(Cl)ccc23)C1=O (stereo not drawn) [1-(7'-chloro 4'-quinolinyl) 3,5-dioxo 4-n-butyl pyrazolidine]
solubility in alcohol ([1]; alcohol): soluble | solubility in solutions of potassium or of sodium carbonate ([1]; solutions of potassium or of sodium carbonate): soluble | solubility in water ([1]; water): insoluble | Mortality ([2]; in vivo, po, 200 mg/kg): no death | Mortality ([2]; in vivo, po, 500 mg/kg): no death | Mortality ([2]; oral single dose, 1 g/kg): no death | Mortality ([2]; oral single dose, 2 g/kg): no death | LD50 at 144 h [3]: > 4000 mg/kg | mortality at 144 h ([3]; 4000 mg/kg): 5% | Mortality ([4]; 200 mg/kg): no death | Mortality ([4]; 500 mg/kg): no death | LD50 at 144 h [5]: ~2000 mg/kg | mortality at 144 h ([5]; 1000 mg/kg): 16% | mortality at 144 h ([5]; 2000 mg/kg): 50% | mortality at 144 h ([5]; 4000 mg/kg): 100% | Animals with at least partial deblocking of the articulations ([6]; after 5 days of treatment): at least 25% | Animals with at least partial deblocking of the articulations ([6]; after 10 days of treatment): ≥ 50% | Animals with at least partial deblocking of the articulations ([6]; after 15 days of treatment): ≥ 65% | ED50 ([7]; in all the animals, determined under similar conditions): ~50 mg/kg | therapeutic index ([7]; in vivo): notably higher than that of phenylbutazone | Reduction of average volume of pleural exudate ([8]; Batch No. 1, 12.5 mg/kg by mouth): -24% | Reduction of average volume of pleural exudate ([8]; Batch No. 1, 25 mg/kg by mouth): -35% | Reduction of average volume of pleural exudate ([8]; Batch No. 1, 50 mg/kg by mouth): -45% | Reduction of average volume of pleural exudate ([8]; Batch No. 2, 12.5 mg/kg by mouth): -23% | Reduction of average volume of pleural exudate ([8]; Batch No. 2, 25 mg/kg by mouth): -38% | Reduction of average volume of pleural exudate ([8]; Batch No. 2, 50 mg/kg by mouth): -55% | Reduction of average volume of pleural exudate ([8]; Batch No. 3, 12.5 mg/kg by mouth): -18% | Reduction of average volume of pleural exudate ([8]; Batch No. 3, 25 mg/kg by mouth): -28% | Reduction of average volume of pleural exudate ([8]; Batch No. 3, 50 mg/kg by mouth): -45% | Average increase of threshold S1 ([9]; 11/2 hour): 0 | Average increase of threshold S1 ([9]; 30 minutes): 0 | Average increase of threshold S1 ([9]; 1 hour): 0 | Average increase of threshold S1 ([9]; 2 hours): 0

Cc1cccc(Nc2ccccc2C(=O)O)c1C [Ac. Mefenamic, Mefanamic acid, reference compound]
Reduction of average volume of pleural exudate [8, 10]: -30%

O=C(O)c1ccccc1Nc1cccc(C(F)(F)F)c1 [Ac. flufenamic, Flufenamic acid, reference compound]
Reduction of average volume of pleural exudate [8, 10]: -32%

O=C(O)c1cccnc1Nc1cccc(C(F)(F)F)c1 [Ac. niflumic, Niflumic acid, reference compound]
Reduction of average volume of pleural exudate [8, 11]: -30%

COc1ccc2c(c1)c(CC(=O)O)c(C)n2C(=O)c1ccc(Cl)cc1 [Indomethacine, reference compound]
Reduction of average volume of pleural exudate ([8]; comparison batch, 5 mg/kg by mouth): -33%

CCCCC1C(=O)N(c2ccccc2)N(c2ccccc2)C1=O [Phenylbutazone, reference compound]
LD50 (in words) [2, 12]: much lower than the above-indicated values | LD50 (in words) [4, 12]: much lower than the above-indicated values | ED50 [7]: ~100 mg/kg | Reduction of average volume of pleural exudate ([8]; comparison batch, 100 mg/kg by mouth): -49%

Clofezone [reference compound]
Reduction of average volume of pleural exudate [8, 11]: -37%
